Measured values from US10501748B2, “Methods and compositions for integration of an exogenous sequence within the genome of plants” (Dow AgroSciences LLC, priority 2013, dated 2019).

Columns and labels:
[1] = tested on: scutella of cv. Bobwhite MPB26RH and cv. Clearfield Janz (N653/N653); assay: basal tolerance/resistance to IMAZAMOX at the callus induction stage; format: cell-based, Triticum aestivum
Method: The basal tolerance of the donor wheat line cv. Bobwhite MPB26RH and basal resistance of cv. Clearfield Janz (N653/N653) genotype to IMAZAMOX® at the callus induction stage was determined as follows: Scutella of immature zygotic embryos from each wheat line were isolated as described previously and placed in 10 cm PETRI™ dishes containing CIM medium supplemented with 0, 50, 100, 200, 300, 400 and 500 nM IMAZAMOX® respectively. Twenty scutella were placed in each PETRI™ dish. A total of 60 scutella from each of the donor wheat line cv. Bobwhite MPB26RH and cv. Clearfield Janz genotype were tested for basal tolerance and basal resistance response, respectively, at each IMAZAMOX® concentration. After incubation at 24° C. in the dark for 4 weeks, the amount of somatic embryogenic callus formation (SEC) at each IMAZAMOX® concentration was recorded. […] Bobwhite MPB26RH was reduced by about 70% at 100 nM IMAZAMOX®, compared to untreated samples. Callus formation for the cv. Clearfield Janz genotype was unaffected, relative to the untreated control, at any IMAZAMOX® concentrations tested.

[2] = tested on: cv. Clearfield Janz (S653/S653) and (N653/N653) plants; assay: basal tolerance/resistance to IMAZAMOX at the plant rooting stage, modified approach; format: in vivo, Triticum aestivum; conditions: 2 weeks
Method: The basal tolerance of the cv. Clearfield Janz (S653/S653) genotype and basal resistance of the cv. Clearfield Janz (N653/N653) genotype to IMAZAMOX® at the plant rooting stage was determined using a modified approach, as cv. […] Seed for each cv. Clearfield Janz genotype was germinated using the aseptic approach described above for producing wheat mesophyll protoplasts. The germinated seedlings were multiplied in vitro by sub-culturing on multiplication medium. Following multiplication, plants for each genotype were transferred to 10 cm PETRI™ dishes containing plant rooting medium (½ MS, 0.5 mg/L NAA, 0.8% agar) supplemented with 0, 50, 100, 200 and 250 nM IMAZAMOX®, respectively. Three plants were placed in each PETRI™ dish. A total of 6 plants per genotype were tested for basal response at each IMAZAMOX® concentration. After incubation for 2 weeks at 24° C. under a 16/8 (light/dark) hour photoperiod in a growth room, the root formation response was recorded.
Clearfield Janz (N653/N653) genotype was restricted, compared to untreated samples, at 250 nM IMAZAMOX®. […] Clearfield Janz (S653/S653) genotype at all concentrations of IMAZAMOX® tested, compared to untreated samples.

[3] = tested on: protoplasts of SEC-derived cell suspension culture of cv. Bobwhite MPB26RH; assay: basal tolerance to IMAZAMOX of protoplast agarose bead-type cultures (calli growth); format: cell-based, Triticum aestivum; conditions: 2 weeks
Source text: IMAZAMOX® selection conditions are optimized using protoplasts derived from somatic embryogenic callus (SEC)-derived cell suspension culture of the wheat line cv. Bobwhite MPB26RH. While protoplasts derived from Bobwhite MPB26RH are non-totipotent (i.e., cannot be used to regenerate entire plants), the selection conditions established for enriching for events expressing the AHAS (653N) mutation are expected to be transferable to any protoplast-based transformation system based on a totipotent wheat genotype, which those in the art would recognize. The experiments conducted establish the basal tolerance of the wild-type donor wheat line cv. Bobwhite MPB26RH (S653/S653 genotype, which confers susceptibility to imidazolinones) to IMAZAMOX®. The use of IMAZAMOX® selection conditions stronger than basal tolerance will strongly enrich for transformed cells expressing the AHAS (S653N) mutation.
Further transformation methods are applicable. For example a cell suspension culture for wheat line cv. Bobwhite MPB26RH can be established. Somatic embryogenic callus (SEC) is induced from immature zygotic embryos of wheat line cv. […]
The basal tolerance of wheat line cv. Bobwhite MPB26RH to IMAZAMOX® is determined by incubating the agarose bead-type cultures in media supplemented with 0, 50, 100, 200, 400 and 600 nM IMAZAMOX® and assessing the rate of calli growth after 2 weeks.

COCc1cnc(C2=NC(C)(C(C)C)C(=O)N2)c(C(=O)O)c1 (centres unmarked) [IMAZAMOX]
reduction of SEC formation ([1]; cv. Bobwhite MPB26RH, 100 nM, 4 weeks, compared to untreated samples): about 70% | callus formation relative to untreated control ([1]; cv. Clearfield Janz (N653/N653), any concentration tested (50-500 nM)): unaffected | root formation compared to untreated samples ([2]; cv. Clearfield Janz (N653/N653), 250 nM): restricted | root formation compared to untreated samples ([2]; cv. Clearfield Janz (S653/S653), all concentrations tested (50-250 nM)): severely restricted | concentrations that impede calli development [3]: higher than 200 nM
